Data: paper PMC3351140 (MedChemComm, 2011)
Substitutions are numbered along the chain they refer to. Several values for one entry are separate records, joined by “and”; a condition that tells them apart may be missing. Equal values may be shown once.

What was measured:
GCase [1] = molecular target: T1, GCase (Homo sapiens, UniProt P04062); experiment: Isolated enzyme GCase assay; format: biochemical
T1 sequence (P04062 40-536): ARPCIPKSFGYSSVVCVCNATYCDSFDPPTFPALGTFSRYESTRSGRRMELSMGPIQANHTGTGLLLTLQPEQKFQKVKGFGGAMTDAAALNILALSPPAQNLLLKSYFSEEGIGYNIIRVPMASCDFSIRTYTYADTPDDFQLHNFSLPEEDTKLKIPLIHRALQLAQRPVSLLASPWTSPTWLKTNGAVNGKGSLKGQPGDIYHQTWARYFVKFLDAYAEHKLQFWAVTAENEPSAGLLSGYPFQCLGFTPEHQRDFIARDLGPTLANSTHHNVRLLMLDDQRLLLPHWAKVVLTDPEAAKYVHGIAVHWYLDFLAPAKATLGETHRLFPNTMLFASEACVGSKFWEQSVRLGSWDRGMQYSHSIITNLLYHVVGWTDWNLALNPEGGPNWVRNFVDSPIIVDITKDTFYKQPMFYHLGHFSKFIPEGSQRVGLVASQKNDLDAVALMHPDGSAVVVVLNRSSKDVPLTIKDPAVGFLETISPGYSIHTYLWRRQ

[2] = Pharmacokinetics after intraperitoneal administration to mice; format: in vivo, male C57BL/6 mice
GCase [3] = molecular target: T1, GCase; experiment: GCase inhibition with alternative substrates; format: biochemical
[4] = test system: fibroblasts from patients with genotype N370S/N370S; experiment: Translocation of N370S GCase to lysosomes, confocal microscopy; format: cell-based, human; details: 1 μM compound, five days, vs vehicle
[5] = Mouse liver microsome stability; format: in vitro ADME; details: 60 minutes, in the presence of NADPH
GCase [6] = molecular target: T1, GCase; experiment: Thermofunctional stabilization of GCase; format: biochemical; details: enzyme incubated at 51 °C for 60 minutes
[7] = molecular target: T2, N370S glucocerebrosidase (GCase) (Homo sapiens, UniProt P04062, N409S); experiment: N370S spleen; format: biochemical; details: for IC50: N370S tissue homogenate, 4-methylumbelliferone β-D glucopyranoside substrate (blue substrate); for fold loss of activity vs 8a: compared with 8a
T2 sequence (P04062 40-536 N409S): T1 sequence (P04062 40-536) with N370S

human SST4 receptor = human SST4 receptor (Homo sapiens, UniProt P31391); experiment: human SST4 receptor binding affinity assay; details: compared with 27
Sequence of human SST4 receptor (P31391 whole entry): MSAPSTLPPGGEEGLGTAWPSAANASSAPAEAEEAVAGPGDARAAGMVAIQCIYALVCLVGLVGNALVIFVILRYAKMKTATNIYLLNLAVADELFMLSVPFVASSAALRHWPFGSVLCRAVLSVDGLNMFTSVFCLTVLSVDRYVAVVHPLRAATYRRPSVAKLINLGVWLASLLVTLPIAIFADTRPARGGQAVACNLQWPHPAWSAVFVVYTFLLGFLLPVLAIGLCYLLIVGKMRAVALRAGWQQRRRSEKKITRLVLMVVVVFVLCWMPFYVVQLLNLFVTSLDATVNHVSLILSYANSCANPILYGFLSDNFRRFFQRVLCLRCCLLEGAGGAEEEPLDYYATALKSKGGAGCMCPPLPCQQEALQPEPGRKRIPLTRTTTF

## S=C(NCCCc1c[nH]cn1)NCCCN(Cc1ccc(Cl)c(Cl)c1)c1ccc(Br)cn1 [8i]
GCase [1]
  inhibitory activity in isolated enzyme assays: displayed inhibitory activity
[2]; 30 mg/kg IP, 0 hr
  Plasma concentration, Mean: BQL
  Plasma concentration, individual: BQL
[2]; 30 mg/kg IP, 0.083 hr, listed as ML156 (8i)
  Plasma concentration, individual: 1820 ng/mL and 1410 ng/mL
[2]; 30 mg/kg IP, 0.25 hr, listed as ML156 (8i)
  Plasma concentration, individual: 3010 ng/mL and 1640 ng/mL
[2]; 30 mg/kg IP, 0.5 hr, listed as ML156 (8i)
  Plasma concentration, individual: 2270 ng/mL and 3270 ng/mL
[2]; 30 mg/kg IP, 1 hr, listed as ML156 (8i)
  Plasma concentration, individual: 3770 ng/mL and 3150 ng/mL
[2]; 30 mg/kg IP, 2 hr, listed as ML156 (8i)
  Plasma concentration, individual: 3840 ng/mL
[2]; 30 mg/kg IP, 4 hr, listed as ML156 (8i)
  Plasma concentration, individual: 2030 ng/mL and 2570 ng/mL
[2]; 30 mg/kg IP, 8 hr, listed as ML156 (8i)
  Plasma concentration, individual: 1190 ng/mL and 357 ng/mL and 714 ng/mL
[2]; 30 mg/kg IP, 12 hr, listed as ML156 (8i)
  Plasma concentration, individual: 127 ng/mL and 80.7 ng/mL
[2]; 30 mg/kg IP, 24 hr, listed as ML156 (8i)
  Plasma concentration, individual: 12.6 ng/mL and 9.98 ng/mL
[2]; brain, additional pharmacokinetic studies
  brain exposure: reasonable levels of the compound also reached the brain
GCase [3]
  inhibition of hydrolysis of resorufin-β-glucopyranoside (red substrate): effectively inhibited
[4]
  co-localization of N370S GCase with LAMP-1 (lysosomes): Increased co-localization
[5]
  parent molecule remaining: 58%
GCase [6]
  retention of GCase function after heating: retain considerable function

## CC(=O)NCCCNC(=S)NCCCN(Cc1ccc(Cl)cc1)c1ccc(Br)cn1 [13b]
[7]
  IC50: inactive

## OC[C@H]1CNC[C@@H](O)[C@@H]1O [Isofagomine, reference compound]
GCase [6]
  retention of GCase function after heating: retain considerable function

## S=C(NCCCc1cnc[nH]1)NCCCN(Cc1ccc(Cl)cc1)c1ccc(Br)cc1 [compound 24]
Human SST4 receptor
  fold less potent than 27 (SST4 binding): about 5 fold
[7]; compared with 27
  fold more potent than compound 27 (GCase): about 10 fold
[4]
  co-localization of N370S GCase with LAMP-1 (lysosomes): Increased co-localization

## CCCCNC(=S)NCCCN(Cc1ccc(Cl)c(Cl)c1)c1ccc(Br)cn1 [compound 25]
[7]
  IC50: inactive

## CN(CCCN(Cc1ccc(Cl)cc1)c1ccc(Br)cn1)C(=S)NCCCc1cnc[nH]1 [compound 26]
[7]
  fold loss of activity vs 8a: 2 fold

## CN(CCCc1cnc[nH]1)C(=S)NCCCN(Cc1ccc(Cl)cc1)c1ccc(Br)cn1 [compound 27]
[7]
  fold loss of activity vs 8a: 10 fold
